Biological target: T1, MAT2A enzyme (Homo sapiens, UniProt P31153)
T1 construct: purchased BPS 71401
Experiment: Enzymatic testing method for MAT2A (Biomol Green, OD620)
Format: biochemical
Details: score by IC50 for inhibiting MAT2A; read-out: MAT2A inhibition score
Experimental: • a) A 5×MAT2A test buffer (250 mM Tris-HCl, pH 8.0; 250 mM KCl; 75 mM MgCl2; 0.025% BSA; 0.05% Brij35; 1.5 mM EDTA) was first prepared and partially diluted to 1× for later use; • b) Preparation and addition of MAT2A enzyme (BPS, 71401): the MAT2A enzyme was prepared into 3.674 ng/L by using the 1×MAT2A test buffer (1.67×, final concentration 2.20 ng/L), a BioTek (MultiFlo FX) automatic liquid separator was used, 15 μL of 1.67×MAT2A enzyme solution was added to compound test wells and negative control wells respectively, and 15 μL of 1×MAT2A test buffer was added to blank control wells; • c) Preparation and addition of a compound: a compound to be tested was diluted with DMSO from 10 mM stock solution to 100 μM, a positive drug AGI-24512 was diluted under the same conditions, and the diluted compound and positive drug were automatically sprayed into each well by using a Tecan compound titrator (D300e) according to preset concentration gradients, where the spray volume was little and negligible. The concentration gradient was initially 1 μM, the dilution was implemented by ½ log, and a total of 8 gradients were set. Centrifugation at 2500 rpm for 30 s and incubation at 25° C. for 30 min were performed; • d) Preparation of ATP: 10 mM ATP (Sigma, A7699) was diluted with 1×MAT2A test buffer to 700 μM for later use; • e) Preparation and addition of a substrate and ATP mixture: 5×MAT2A test buffer, 3 μL/well; 750 μM L-methionine (Adamas, 01100469), 2.5 μL/well; 700 μM ATP, 2.5 μL/well; and double distilled water, 2 μL/well. A total amount of required mixture was prepared according to the number of test wells, and 10 μL of the mixture was added to each well by using the BioTek (MultiFlo FX) automatic liquid separator, followed by centrifugation at 2500 rpm for 30 s and reaction at 25° C. for 150 min; • f) Addition of Biomol Green detection reagent: 50 μL of Biomol Green (Enzo, BML-AK111) was added to each well by using the BioTek (MultiFlo FX) automatic liquid separator, followed by centrifugation at 2500 rpm for 30 s and incubation at 25° C. for 20 minutes; • g) After the reaction, OD620 values were read by using a Perkin Elmer (Envision 2105) multifunctional plate reader.
A formula for calculating an inhibition rate was as follows: […]
Wherein, • % Inhibition: inhibition rate % • ODsample: OD620 value in a sample well; • ODmin: representing a mean OD620 value of blank control wells without the enzyme or compound to be tested; • ODmax: representing a mean OD620 value of negative control wells with the enzyme and without the compound.
Then a dose-effect curve log(inhibitor) vs. response-Variable slope was fitted by usingGraphPad Prism 5 software to obtain an IC50 value of compound for MAT2A enzyme inhibition.

T1 sequence (P31153 whole entry): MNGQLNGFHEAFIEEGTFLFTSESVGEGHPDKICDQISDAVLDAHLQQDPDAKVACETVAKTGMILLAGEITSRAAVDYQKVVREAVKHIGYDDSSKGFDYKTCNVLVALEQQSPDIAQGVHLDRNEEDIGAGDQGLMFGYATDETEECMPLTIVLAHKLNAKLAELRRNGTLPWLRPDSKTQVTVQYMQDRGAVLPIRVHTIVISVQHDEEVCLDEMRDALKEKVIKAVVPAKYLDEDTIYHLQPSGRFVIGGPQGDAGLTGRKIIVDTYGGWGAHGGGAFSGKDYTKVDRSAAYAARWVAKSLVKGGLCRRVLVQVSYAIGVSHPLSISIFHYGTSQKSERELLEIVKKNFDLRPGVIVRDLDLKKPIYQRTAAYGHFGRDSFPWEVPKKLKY

O=c1c(-c2ccc(OC(F)F)cc2)cn2ccc(-c3ccc(OC(F)F)cc3)cc2c1-c1ccc(OC(F)F)cc1 [Example 1, 1,3,8-tris(4-(difluoromethoxy)phenyl)-2H-quinolizin-2-one]
IC50: 50 to 200 nM

O=c1c(-c2ccc(OC(F)F)cc2)cn2ccc(Cl)cc2c1-c1ccc(OC(F)F)cc1 [Example 2, 8-chloro-1,3-bis(4-(difluoromethoxy)phenyl)-2H-quinolizin-2-one]
IC50: < 50 nM

Cn1nc2ccc(-c3cn4ccc(C5CC5)cc4c(-c4ccc5nn(C)c(N)c5c4)c3=O)cc2c1N [Example 5, 1,3-bis(3-amino-2-methyl-2H-indazol-5-yl)-8-cyclopropylquinolizin-2-one]
IC50: > 1000 nM

Cn1nccc1-c1c2cc(-c3cn4ccc(C5CC5)cc4c(-c4ccc5nn(C)c(-c6ccnn6C)c5c4)c3=O)ccc2nn1C [Example 8, 8-cyclopropyl-1,3-bis[2-methyl-3-(2-methylpyrazol-3-yl)indazol-5-yl]quinolizin-2-one]
IC50: > 1000 nM

O=C1NC2(CC2)Cn2nc3ccc(-c4cn5ccc(NCC(F)(F)F)nc5c(-c5ccc(OC(F)F)cc5)c4=O)cc3c21 [Example 14, 9′-{9-[4-(difluoromethoxy)phenyl]-8-oxo-2-[(2,2,2-trifluoroethyl)amino]pyrido[1,2-a]pyrimidin-7-yl}-2′,4′-dihydrospiro[cyclopropane-1,3′-pyrazino[1,2-b]indazol]-1′-one]
IC50: < 50 nM

Nc1nc2ccc(-c3cn4ccc(NCC(F)(F)F)nc4c(-c4ccc(OC(F)F)cc4)c3=O)cc2s1 [Example 18]
IC50: < 50 nM

N#CCn1cc2cc(-c3cn4ccc(NCC(F)(F)F)nc4c(-c4ccc(OC(F)F)cc4)c3=O)ccc2n1 [Example 19, 2-(5-{9-[4-(difluoromethoxy)phenyl]-8-oxo-2-[(2,2,2-trifluoroethyl)amino]pyrido[1,2-a]pyrimidin-7-yl}indazol-2-yl)acetonitrile]
IC50: < 50 nM

O=c1ccn2cc(-c3ccc(OC(F)F)cc3)c(=O)c(-c3ccc(OC(F)F)cc3)c2[nH]1 [Example 21, 7,9-bis[4-(difluoromethoxy)phenyl]-1H-pyrido[1,2-a]pyrimidin-2,8-dione]
IC50: > 1000 nM

Cn1cc2cc(-c3cn4ccc(C5CC5)nc4c(-c4ccc5nn(C)cc5c4)c3=O)ccc2n1 [Example 29, 2-cyclopropyl-7,9-bis(2-methyl-2H-indazol-5-yl)-8H-pyrido[1,2-a]pyrimidin-8-one]
IC50: > 1000 nM

O=c1c(-c2ccc3c(c2)OC(F)(F)O3)cn2ccc(C3CC3)nc2c1-c1ccc2c(c1)OC(F)(F)O2 [Example 30, 2-cyclopropyl-7,9-bis(2,2-difluoro-1,3-benzodioxol-5-yl)-8H-pyrido[1,2-a]pyrimidin-8-one]
IC50: > 1000 nM

COc1ccc(-c2cn3ccc(C4CC4)nc3c(-c3ccc(OC)c(OC)c3)c2=O)cc1OC [Example 31, 2-cyclopropyl-7,9-bis(3,4-dimethoxyphenyl)-8H-pyrido[1,2-a]pyrimidin-8-one]
IC50: > 1000 nM

COc1ccc(-c2cn3ccc(C4CC4)nc3c(-c3ccc4c(c3)OC(F)(F)O4)c2=O)cc1OC [Example 33, 2-cyclopropyl-9-(2,2-difluoro-1,3-benzodioxol-5-yl)-7-(3,4-dimethoxyphenyl)-8H-pyrido[1,2-a]pyrimidin-8-one]
IC50: > 1000 nM

COc1cc(-c2cn3ccc(C4CC4)nc3c(-c3ccc4c(c3)OC(F)(F)O4)c2=O)ccc1OC(F)F [Example 34, 2-cyclopropyl-9-(2,2-difluoro-1,3-benzodioxol-5-yl)-7-[4-(difluoromethoxy)-3-methoxyphenyl]-8H-pyrido[1,2-a]pyrimidin-8-one]
IC50: > 1000 nM

O=C1NC2(CC2)Cn2nc3ccc(-c4cn5ccc(C6CC6)nc5c(-c5ccc(OC(F)F)cc5)c4=O)cc3c21 [Example 35, 9′-(2-cyclopropyl-9-(4-(difluoromethoxy)phenyl)-8-oxo-8H-pyrido[1,2-a]pyrimidin-7-yl)-4′H-spiro[cyclopropane-1,3′-pyrazino[1,2-b]indazol]-1′(2′H)-one]
IC50: < 50 nM

Reference: patent publication US20240287063A1, “METHIONINE ADENOSYLTRANSFERASE 2A INHIBITOR” (NANJING CHIA TAI TIANQING PHARMACEUTICAL CO., LTD., priority 2021, published 2024)
